# In the NIST ThermoML archive (doi:10.1016/j.jct.2008.11.012):
# ± gives the expanded uncertainty stated by the source.
# Key:
# [1] = 101 kPa, Liquid; for viscosity: Concentric cylinders viscometry; for mass density: Vibrating tube method
# [2] = xn = mol fraction of the nth substance listed; conditions: 101 kPa, Liquid, x2 = 0; for viscosity: Concentric cylinders viscometry; for mass density: Vibrating tube method
Structure (SMILES),viscosity ([1]; 293.15 K),mass density ([1]; 293.15 K),viscosity ([1]; 303.15 K),mass density ([1]; 303.15 K),viscosity ([1]; 313.15 K),mass density ([1]; 313.15 K),viscosity ([1]; 323.15 K),mass density ([1]; 323.15 K),viscosity ([1]; 333.15 K),mass density ([1]; 333.15 K),viscosity ([1]; 343.15 K),mass density ([1]; 343.15 K),viscosity ([1]; 353.15 K),mass density ([1]; 353.15 K),viscosity ([1]; 363.15 K),mass density ([1]; 363.15 K),also measured
NCCNCCN [di(2-aminoethyl)amine],7.038 ± 0.28 mPa·s,951 ± 1 kg/m3,4.804 ± 0.19 mPa·s,942.3 ± 1 kg/m3,3.4 ± 0.14 mPa·s,933.8 ± 1 kg/m3,2.695 ± 0.11 mPa·s,925.5 ± 1 kg/m3,2.109 ± 0.086 mPa·s,917 ± 1 kg/m3,1.703 ± 0.069 mPa·s,908.9 ± 1 kg/m3,1.409 ± 0.057 mPa·s,900.4 ± 1 kg/m3,1.19 ± 0.049 mPa·s,891.9 ± 1 kg/m3,
O [water] + NCCNCCN,,,,,,,,,,,,,,,,,viscosity ([2]; 293.15 K): 1.006 ± 0.041 mPa·s; mass density ([2]; 293.15 K): 999.2 ± 1 kg/m3; viscosity ([2]; 303.15 K): 0.7988 ± 0.033 mPa·s; mass density ([2]; 303.15 K): 996.5 ± 1 kg/m3; viscosity ([2]; 313.15 K): 0.6546 ± 0.027 mPa·s; mass density ([2]; 313.15 K): 993 ± 1 kg/m3; viscosity ([2]; 323.15 K): 0.5427 ± 0.023 mPa·s; mass density ([2]; 323.15 K): 988.7 ± 1 kg/m3; viscosity ([2]; 333.15 K): 0.4596 ± 0.019 mPa·s; mass density ([2]; 333.15 K): 983.7 ± 1 kg/m3; viscosity ([2]; 343.15 K): 0.4271 ± 0.018 mPa·s; mass density ([2]; 343.15 K): 978.3 ± 1 kg/m3; viscosity ([2]; 353.15 K): 0.3731 ± 0.016 mPa·s; mass density ([2]; 353.15 K): 972.3 ± 1 kg/m3; viscosity ([2]; 363.15 K): 0.2983 ± 0.013 mPa·s; mass density ([2]; 363.15 K): 965.9 ± 1 kg/m3
O [water],1.006 ± 0.041 mPa·s,999.2 ± 1 kg/m3,0.7988 ± 0.033 mPa·s,996.5 ± 1 kg/m3,0.6546 ± 0.027 mPa·s,993 ± 1 kg/m3,0.5427 ± 0.023 mPa·s,988.7 ± 1 kg/m3,0.4596 ± 0.019 mPa·s,983.7 ± 1 kg/m3,0.4271 ± 0.018 mPa·s,978.3 ± 1 kg/m3,0.3731 ± 0.016 mPa·s,972.3 ± 1 kg/m3,0.2983 ± 0.013 mPa·s,965.9 ± 1 kg/m3,
